Experimental data: ChEMBL document CHEMBL5150049, “The discovery of (1R, 3R)-1-(3-chloro-5-fluorophenyl)-3-(hydroxymethyl)-1,2,3,4-tetrahydroisoquinoline-6-carbonitrile, a potent and selective agonist of human transient receptor potential cation channel subfamily m member 5 (TRPM5) and evaluation of as a potential gastrointestinal prokinetic agent” (Bioorg Med Chem, 2022)
Calls of active or inactive are those of the source. The rule behind the calls is not given here.

Columns and labels:
Assay type in all cases: cell-based
[1] = target: T1, Transient receptor potential cation channel subfamily M member 5 (Homo sapiens, UniProt Q9NZQ8); assay: Agonist activity at human TRPM5 expressed in CHO-K1 cells assessed as increase in relative fluorescence unit measured for 2 mins by FLIPR based membrane potential assay
T1 sequence (Q9NZQ8 whole entry): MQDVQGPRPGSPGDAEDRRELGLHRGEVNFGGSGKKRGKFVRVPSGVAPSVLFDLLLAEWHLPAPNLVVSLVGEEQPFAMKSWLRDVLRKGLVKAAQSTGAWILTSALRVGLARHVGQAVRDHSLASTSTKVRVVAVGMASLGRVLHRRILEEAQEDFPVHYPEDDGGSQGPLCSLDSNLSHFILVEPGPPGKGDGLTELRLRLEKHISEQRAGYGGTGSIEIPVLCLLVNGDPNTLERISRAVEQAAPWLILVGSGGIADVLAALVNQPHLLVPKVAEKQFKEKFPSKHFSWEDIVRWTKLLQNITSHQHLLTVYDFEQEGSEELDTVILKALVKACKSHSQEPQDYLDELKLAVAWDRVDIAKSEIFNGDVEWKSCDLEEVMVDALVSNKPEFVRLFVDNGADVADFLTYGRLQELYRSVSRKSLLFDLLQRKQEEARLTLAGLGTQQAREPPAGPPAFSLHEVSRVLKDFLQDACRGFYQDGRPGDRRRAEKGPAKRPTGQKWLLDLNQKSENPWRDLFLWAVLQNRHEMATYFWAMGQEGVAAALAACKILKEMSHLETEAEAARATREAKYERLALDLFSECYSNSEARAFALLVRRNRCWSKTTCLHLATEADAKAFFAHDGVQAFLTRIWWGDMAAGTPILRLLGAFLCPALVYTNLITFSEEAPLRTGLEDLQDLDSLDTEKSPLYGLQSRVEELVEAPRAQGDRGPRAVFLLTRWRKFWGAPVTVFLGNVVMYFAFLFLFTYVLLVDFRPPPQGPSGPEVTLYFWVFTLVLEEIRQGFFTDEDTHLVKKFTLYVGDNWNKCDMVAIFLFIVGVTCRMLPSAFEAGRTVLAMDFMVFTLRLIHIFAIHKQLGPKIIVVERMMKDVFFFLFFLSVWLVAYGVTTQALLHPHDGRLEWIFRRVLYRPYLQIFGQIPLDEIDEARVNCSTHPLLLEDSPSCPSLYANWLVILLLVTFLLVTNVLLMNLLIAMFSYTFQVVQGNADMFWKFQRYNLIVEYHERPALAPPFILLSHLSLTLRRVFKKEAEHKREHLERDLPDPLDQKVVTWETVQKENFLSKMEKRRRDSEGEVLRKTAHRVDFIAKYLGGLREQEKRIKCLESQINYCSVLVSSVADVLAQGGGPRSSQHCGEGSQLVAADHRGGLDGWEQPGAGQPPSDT

[2] = target: Transient receptor potential cation channel subfamily M member 4 (Homo sapiens, UniProt Q8TD43); assay: Agonist activity at human TRPM4 expressed in CHO-K1 cells assessed as increase in relative fluorescence unit by measuring membrane potential by FLIPR assay
[3] = target: T2, Transient receptor potential cation channel subfamily M member 5 (Homo sapiens) (UniProt Q9NZQ8); assay: Agonist activity at human TRPM5 expressed in human Caco-2 cells assessed as increase in acetylcholine release at 50 uM incubated for 18 hrs by mass spectrometric analysis; conditions: filed as agonist
T2 sequence (whole entry): T1 sequence (Q9NZQ8 whole entry)

Chain of Transient receptor potential cation channel subfamily M member 4 (Q8TD43 whole entry): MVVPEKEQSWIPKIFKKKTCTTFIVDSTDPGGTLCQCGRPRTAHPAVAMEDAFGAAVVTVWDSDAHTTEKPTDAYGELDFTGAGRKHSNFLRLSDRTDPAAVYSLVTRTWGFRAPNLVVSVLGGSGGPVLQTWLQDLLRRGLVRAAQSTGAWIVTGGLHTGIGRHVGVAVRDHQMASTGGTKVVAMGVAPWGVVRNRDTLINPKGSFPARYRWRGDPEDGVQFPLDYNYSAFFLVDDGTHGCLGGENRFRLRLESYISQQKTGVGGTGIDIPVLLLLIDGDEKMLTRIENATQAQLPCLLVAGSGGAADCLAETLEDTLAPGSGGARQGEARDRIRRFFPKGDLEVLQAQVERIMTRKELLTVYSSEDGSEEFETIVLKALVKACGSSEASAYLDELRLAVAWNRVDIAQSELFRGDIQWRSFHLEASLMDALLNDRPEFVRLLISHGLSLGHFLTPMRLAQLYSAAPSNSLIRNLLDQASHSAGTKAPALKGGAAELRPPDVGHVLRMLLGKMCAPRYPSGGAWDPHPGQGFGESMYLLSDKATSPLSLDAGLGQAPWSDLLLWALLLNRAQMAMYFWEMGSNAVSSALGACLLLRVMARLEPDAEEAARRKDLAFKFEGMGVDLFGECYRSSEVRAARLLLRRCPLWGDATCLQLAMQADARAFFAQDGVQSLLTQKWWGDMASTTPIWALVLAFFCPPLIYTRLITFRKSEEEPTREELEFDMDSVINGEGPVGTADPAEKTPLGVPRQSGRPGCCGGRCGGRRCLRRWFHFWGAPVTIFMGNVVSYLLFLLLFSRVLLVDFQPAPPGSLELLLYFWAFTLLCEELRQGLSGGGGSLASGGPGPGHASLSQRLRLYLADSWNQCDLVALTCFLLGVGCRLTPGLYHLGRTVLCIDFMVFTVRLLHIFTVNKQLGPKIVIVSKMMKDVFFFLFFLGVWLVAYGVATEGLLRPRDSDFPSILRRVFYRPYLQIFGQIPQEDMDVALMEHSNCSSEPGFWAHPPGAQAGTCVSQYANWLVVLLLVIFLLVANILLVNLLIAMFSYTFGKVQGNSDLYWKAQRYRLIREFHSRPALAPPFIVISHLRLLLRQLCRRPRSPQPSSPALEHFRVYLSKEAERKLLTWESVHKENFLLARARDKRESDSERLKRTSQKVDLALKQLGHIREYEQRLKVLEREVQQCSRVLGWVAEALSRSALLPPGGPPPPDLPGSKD

**Q.** With `OC[C@@H]1Cc2ccc(Cl)cc2[C@H](c2ccccn2)N1` as the compound, how does the EC50 [1] read?
**A.** The EC50 was 7.94 µM.

**Q.** `OC[C@@H]1Cc2c(Cl)cccc2[C@H](c2ccccc2)N1` was tested. Which EC50 [1] did it give?
**A.** The EC50 was 1.26 µM.

**Q.** `COC[C@@H]1Cc2ccc(Cl)cc2[C@H](c2ccccc2)N1` was tested. Which EC50 [1] did it give?
**A.** The EC50 was 15.8 µM.

**Q.** What does the source list for `OC[C@@H]1Cc2ccc(Cl)cc2[C@H](c2cc(F)cc(F)c2)N1`?
**A.** EC50 [1]: 0.2 µM; EC50 [2]: 0.589 µM

**Q.** How did the EC50 [1] turn out when `OC[C@@H]1Cc2ccc(Cl)cc2[C@H](c2cccc(F)c2)N1` was run?
**A.** The EC50 was 0.316 µM.

**Q.** And the EC50 [2]?
**A.** The EC50 was 1.7 µM.

**Q.** For `OC[C@@H]1Cc2ccc(Cl)cc2[C@@H](c2ccccc2)N1` (racemic), which EC50 [1] is on record?
**A.** The EC50 was greater than 31.6 µM.

**Q.** For `Cc1ccc2c(c1)[C@H](c1ccccc1)N[C@H](CO)C2`, which EC50 [1] is on record?
**A.** Its EC50 is 10 µM.

**Q.** For `OC[C@@H]1Cc2ccc(Cl)cc2[C@H](c2ccccc2)N1` (racemic), which EC50 [1] is on record?
**A.** Its EC50 is 0.794 µM.

**Q.** And the EC50 [2]?
**A.** The EC50 was 24.5 µM.

**Q.** For `Clc1cnc(CNc2cc3sncc3cc2Cl)s1`, which Activity [3] is on record?
**A.** Its Activity is “Active”.

**Q.** How did the EC50 [1] turn out when `OC[C@@H]1Cc2ccc(Cl)cc2[C@H](c2cc(Cl)cc(Cl)c2)N1` was run?
**A.** Its EC50 is 0.2 µM.

**Q.** And the EC50 [2]?
**A.** The EC50 was 8.91 µM.

**Q.** Which results are given for `OC[C@@H]1Cc2cc(Cl)ccc2[C@H](c2ccccc2)N1`?
**A.** EC50 [1]: 0.501 µM; EC50 [2]: 26.3 µM

**Q.** `OC[C@@H]1Cc2ccccc2[C@H](c2ccccc2)N1` was tested. Which EC50 [1] did it give?
**A.** The EC50 was greater than 31.6 µM.

**Q.** With `OC[C@@H]1Cc2cc(Cl)ccc2[C@H](c2ccccc2Cl)N1` as the compound, how does the EC50 [1] read?
**A.** The EC50 was 1.58 µM.

**Q.** How did the EC50 [1] turn out when `N#Cc1ccc2c(c1)[C@H](c1cc(F)cc(Cl)c1)N[C@H](CO)C2` was run?
**A.** The EC50 was 7.94 µM.

**Q.** `Cc1cc([C@@H]2N[C@H](CO)Cc3ccc(Cl)cc32)ccc1Cl` was tested. Which EC50 [1] did it give?
**A.** Its EC50 is 1 µM.

**Q.** What about the EC50 [2] of the same compound?
**A.** Its EC50 is 25.7 µM.

**Q.** With `OC[C@@H]1Cc2cc(Cl)c(F)cc2[C@H](c2ccccc2)N1` as the compound, how does the EC50 [1] read?
**A.** Its EC50 is 0.316 µM.

**Q.** How did the EC50 [1] turn out when `N#Cc1ccc2c(c1)C[C@@H](CO)N[C@H]2c1cc(F)cc(Cl)c1` was run?
**A.** The EC50 was 20 µM.

**Q.** `OC[C@@H]1Cc2cc(Cl)ncc2[C@H](c2cc(F)cc(Cl)c2)N1` was tested. Which EC50 [1] did it give?
**A.** The EC50 was 2 µM.

**Q.** How did the EC50 [1] turn out when `Cc1ccccc1[C@@H]1N[C@H](CO)Cc2ccc(Cl)cc21` was run?
**A.** Its EC50 is greater than 31.6 µM.

**Q.** Which EC50 [1] does the source give for `OC[C@@H]1Cc2cc(Cl)ccc2[C@H](c2cc(F)cc(Cl)c2)N1` here?
**A.** The EC50 was 0.0631 µM.

**Q.** `OC[C@@H]1Cc2cc(Cl)cnc2[C@H](c2cc(F)cc(Cl)c2)N1` was tested. Which EC50 [1] did it give?
**A.** The EC50 was 3.16 µM.

**Q.** Which EC50 [1] does the source give for `CN1[C@H](CO)Cc2ccc(Cl)cc2[C@@H]1c1ccccc1` here?
**A.** Its EC50 is greater than 31.6 µM.

**Q.** How did the EC50 [1] turn out when `OC[C@@H]1Cc2ccc(Cl)cc2[C@H](c2cccnc2)N1` was run?
**A.** Its EC50 is 20 µM.

**Q.** `OC[C@@H]1Cc2ccc(Cl)cc2[C@H](c2cccc(Cl)c2)N1` was tested. Which EC50 [1] did it give?
**A.** Its EC50 is 0.501 µM.

**Q.** And the EC50 [2]?
**A.** The EC50 was 1.82 µM.

**Q.** `Cc1ccc2c(c1)C[C@@H](CO)N[C@H]2c1ccccc1` was tested. Which EC50 [1] did it give?
**A.** Its EC50 is 10 µM.

**Q.** What does the source list for `OC[C@@H]1Cc2ccc(Cl)cc2[C@H](c2cc(F)cc(Cl)c2)N1`?
**A.** EC50 [1]: 0.1 µM; EC50 [2]: 1.35 µM

**Q.** With `Cc1ccc([C@@H]2N[C@H](CO)Cc3ccc(Cl)cc32)cc1` as the compound, how does the EC50 [1] read?
**A.** The EC50 was 6.31 µM.

**Q.** For `N#Cc1cc(F)cc([C@@H]2N[C@H](CO)Cc3cc(Cl)ccc32)c1`, which EC50 [1] is on record?
**A.** Its EC50 is 0.251 µM.

**Q.** How did the EC50 [1] turn out when `OCc1cc2ccc(Cl)cc2c(-c2ccccc2)n1` was run?
**A.** Its EC50 is greater than 31.6 µM.

**Q.** With `OC[C@@H]1Cc2ccc(Cl)cc2[C@H](c2ccncc2)N1` as the compound, how does the EC50 [1] read?
**A.** Its EC50 is greater than 31.6 µM.

**Q.** How did the EC50 [1] turn out when `OC[C@H]1Cc2ccc(Cl)cc2[C@H](c2ccccc2)N1` was run?
**A.** The EC50 was greater than 31.6 µM.

**Q.** With `OC[C@@H]1Cc2cccc(Cl)c2[C@H](c2ccccc2)N1` as the compound, how does the EC50 [1] read?
**A.** Its EC50 is greater than 31.6 µM.

**Q.** For `OC[C@@H]1Cc2cc(Cl)c(Cl)cc2[C@H](c2ccccc2)N1`, which EC50 [1] is on record?
**A.** Its EC50 is 0.0501 µM.
